The target of this assay is T1, cellular PARG (Homo sapiens, UniProt Q86W56).
T1 construct: endogenous in cells; host or cells: HeLa
T1 sequence (Q86W56 whole entry): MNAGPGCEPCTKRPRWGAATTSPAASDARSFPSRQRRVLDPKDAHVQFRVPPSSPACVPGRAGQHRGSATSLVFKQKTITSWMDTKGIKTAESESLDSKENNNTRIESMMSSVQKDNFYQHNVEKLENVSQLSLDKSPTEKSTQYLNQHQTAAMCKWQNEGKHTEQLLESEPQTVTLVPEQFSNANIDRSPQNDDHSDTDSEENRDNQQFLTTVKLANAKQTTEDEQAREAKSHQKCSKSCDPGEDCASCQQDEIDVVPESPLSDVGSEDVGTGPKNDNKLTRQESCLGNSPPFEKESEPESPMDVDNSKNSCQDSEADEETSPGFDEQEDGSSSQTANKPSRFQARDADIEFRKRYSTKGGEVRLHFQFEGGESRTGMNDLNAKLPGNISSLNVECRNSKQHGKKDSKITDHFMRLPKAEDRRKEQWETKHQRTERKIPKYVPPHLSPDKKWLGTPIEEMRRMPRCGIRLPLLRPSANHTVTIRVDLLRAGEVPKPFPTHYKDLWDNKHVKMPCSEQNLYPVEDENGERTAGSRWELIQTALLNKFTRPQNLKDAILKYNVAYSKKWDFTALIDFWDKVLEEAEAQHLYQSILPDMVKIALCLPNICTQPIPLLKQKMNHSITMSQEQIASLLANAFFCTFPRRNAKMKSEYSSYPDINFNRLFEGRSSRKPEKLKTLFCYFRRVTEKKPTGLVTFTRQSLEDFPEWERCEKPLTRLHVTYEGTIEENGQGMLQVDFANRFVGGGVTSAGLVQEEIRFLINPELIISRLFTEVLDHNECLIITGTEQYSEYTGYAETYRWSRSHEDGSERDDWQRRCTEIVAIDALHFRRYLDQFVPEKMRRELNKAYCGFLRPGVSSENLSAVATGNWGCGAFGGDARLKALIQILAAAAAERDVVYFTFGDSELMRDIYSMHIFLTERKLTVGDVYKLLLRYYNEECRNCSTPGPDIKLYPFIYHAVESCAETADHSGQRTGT
Nature of the assay: Nuclear PAR accumulation assay (immunofluorescence high-content imaging, MMS-treated HeLa cells). The conditions noted are these: 1 hour compound then MMS 50 μg/mL for an additional hour. In kind it is cell-based. In short, it runs like this: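 HeLa cells pretreated with compound for 1 h at 37° C, then given 50 μg/mL MMS for another hour. After methanol fixation, PAR was immunostained with DAPI nuclear counterstain; per-nucleus intensity and percent PAR-positive cells were imaged at 20× (≥1,000 cells/well). IC50 from four-parameter logistic fit.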
Turning to `[2H]C([2H])(c1cnn(C)c1)N1C(=O)c2cc(S(=O)(=O)NC3(C)CC3)ccc2N2C1=NC[C@H]2COCCN(C)C` [Example 114, (S)-1-((2-(dimethylamino)ethoxy)methyl) -4-((1-methyl-1H-pyrazol-4-yl)methyl-d2)-N-(1-methylcyclopropyl)-5-oxo-1,2,4,5-tetrahydroimidazo[1,2-a]quinazoline-7-sulfonamide], the IC50 was in the range of 100 to 1000 nM.
The value for `Cn1cc(CN2C(=O)c3cc(S(=O)(=O)NC4(C)CC4)ccc3N3C2=NC[C@H]3COC2CC2)cn1` [Example 115, (S)-1-(cyclopropoxymethyl)-4-((1-methyl-1H-pyrazol-4-yl)methyl)-N-(1-methylcyclopropyl)-5-oxo-1,2,4,5-tetrahydroimidazo[1,2-a]quinazoline-7-sulfonamide] was < 100 nM; that for `Cn1cc(CN2C(=O)c3cc(S(=O)(=O)NC4(C)CC4)ccc3N3C2=NC[C@H]3C#Cc2ccncc2)cn1` [Example 116, (R)-4-((1-methyl-1H-pyrazol-4-yl)methyl)-N-(1-methylcyclopropyl)-5-oxo-1-(pyridin-4-ylethynyl)-1,2,4,5-tetrahydroimidazo[1,2-a]quinazoline-7-sulfonamide] was < 100 nM.
The value for `Cn1cc(CN2C(=O)c3cc(S(=O)(=O)NC4(C)CC4)ccc3N3C2=NC[C@H]3C#Cc2cccnc2)cn1` [Example 117, (R)-4-((1-methyl-1H-pyrazol-4-yl)methyl)-N-(1-methylcyclopropyl)-5-oxo-1-(pyridin-3-ylethynyl)-1,2,4,5-tetrahydroimidazo[1,2-a]quinazoline-7-sulfonamide] was < 100 nM.
The value for `Cn1cc(CN2C(=O)c3cc(S(=O)(=O)NC4(C)CC4)ccc3N3C2=NC[C@H]3C2CCC2)cn1` [Example 118, (R)-1-cyclobutyl-4-((1-methyl-1H-pyrazol-4-yl)methyl)-N-(1-methylcyclopropyl)-5-oxo-1,2,4,5-tetrahydroimidazo[1,2-a]quinazoline-7-sulfonamide] was < 100 nM.
`Cc1nc([C@@H]2CN=C3N(Cc4cnn(C)c4)C(=O)c4cc(S(=O)(=O)NC5(C)CC5)ccc4N32)co1` [Example 119, (S)-4-((1-methyl-1H-pyrazol-4-yl)methyl)-N-(1-methylcyclopropyl)-1-(2-methyloxazol-4-yl)-5-oxo-1,2,4,5-tetrahydroimidazo[1,2-a]quinazoline-7-sulfonamide] showed an IC50 of 100 to 1000 nM.
As for `CN1C(=O)c2cc(S(=O)(=O)NC3(C)CC3)ccc2N2C1=NC[C@H]2C#Cc1cn(C)nc1F` [Example 120, (R)-1-((3-fluoro-1-methyl-1H-pyrazol-4-yl)ethynyl)-4-methyl-N-(1-methylcyclopropyl)-5-oxo-1,2,4,5-tetrahydroimidazo[1,2-a]quinazoline-7-sulfonamide], the IC50 is < 100 nM.
On to `Cc1ncc([C@@H]2CN=C3N(Cc4cnn(C)c4)C(=O)c4cc(S(=O)(=O)NC5(C)CC5)ccc4N32)s1` [Example 121, (S)-4-((1-methyl-1H-pyrazol-4-yl)methyl)-N-(1-methylcyclopropyl)-1-(2-methylthiazol-5-yl)-5-oxo-1,2,4,5-tetrahydroimidazo[1,2-a]quinazoline-7-sulfonamide], for which the IC50 is < 100 nM.
Next, `CCC[C@@H]1CN=C2N(Cc3cnn(C)c3)C(=O)c3cc(S(=O)(=O)NC4(C)CC4)ccc3N21` [Example 122, (R)-4-((1-methyl-1H-pyrazol-4-yl)methyl)-N-(1-methylcyclopropyl)-5-oxo-1-propyl-1,2,4,5-tetrahydroimidazo[1,2-a]quinazoline-7-sulfonamide]: < 100 nM; `C[C@@H]1CN=C2N(C)C(=O)c3cc(S(=O)(=O)NC4(C)CC4)cc(N4CCC5(CC4)COC5)c3N21` [Example 123, (R)-1,4-dimethyl-N-(1-methylcyclopropyl)-5-oxo-9-(2-oxa-7-azaspiro[3.5]nonan-7-yl)-1,2,4,5-tetrahydroimidazo[1,2-a]quinazoline-7-sulfonamide]: < 100 nM.
Next, `Cn1cc(CN2C(=O)c3cc(S(=O)(=O)NC4(C)CC4)ccc3N3C2=NC[C@H]3C#CC2(N)CC2)cn1` [Example 124, (R)-1-((1-aminocyclopropyl)ethynyl)-4-((1-methyl-1H-pyrazol-4-yl)methyl)-N-(1-methylcyclopropyl)-5-oxo-1,2,4,5-tetrahydroimidazo[1,2-a]quinazoline-7-sulfonamide]: < 100 nM.
As to `COC1(C(=O)N2CCN(c3cc(S(=O)(=O)NC4(C)CC4)cc4c3N3C(=NC[C@H]3C)N(C)C4=O)CC2)CC1` [Example 125, (R)-9-(4-(1-methoxycyclopropane-1-carbonyl)piperazin-1-yl)-1,4-dimethyl-N-(1-methylcyclopropyl)-5-oxo-1,2,4,5-tetrahydroimidazo[1,2-a]quinazoline-7-sulfonamide], the IC50 is < 100 nM.
Next, `C[C@@H]1CN(c2cc(S(=O)(=O)NC3(C)CC3)cc3c2N2C(=NC[C@H]2C)N(C)C3=O)C[C@@H](C)O1` [Example 126, (R)-9-((2R,6R)-2,6-dimethylmorpholino)-1,4-dimethyl-N-(1-methylcyclopropyl)-5-oxo-1,2,4,5-tetrahydroimidazo[1,2-a]quinazoline-7-sulfonamide]: 100 to 1000 nM.
The value for `CNC1(C#C[C@@H]2CN=C3N(Cc4cnn(C)c4)C(=O)c4cc(S(=O)(=O)NC5(C)CC5)ccc4N32)CC1` [Example 127, (R)-4-((1-methyl-1H-pyrazol-4-yl)methyl)-1-((1-(methylamino)cyclopropyl)ethynyl)-N-(1-methylcyclopropyl)-5-oxo-1,2,4,5-tetrahydroimidazo[1,2-a]quinazoline-7-sulfonamide] was < 100 nM; that for `Cn1cc(CN2C(=O)c3cc(S(=O)(=O)NC4(C)CC4)ccc3N3C2=NC[C@H]3CCC#N)cn1` [Example 128, (R)-1-(2-cyanoethyl)-4-((1-methyl-1H-pyrazol-4-yl)methyl)-N-(1-methylcyclopropyl)-5-oxo-1,2,4,5-tetrahydroimidazo[1,2-a]quinazoline-7-sulfonamide] was 100 to 1000 nM.
The value for `CN1C(=O)c2cc(S(=O)(=O)NC3(C)CC3)ccc2N2C1=NC[C@H]2C#CC1(N(C)C)CC1` [Example 129, (R)-1-((1-(dimethylamino)cyclopropyl)ethynyl)-4-methyl-N-(1-methylcyclopropyl)-5-oxo-1,2,4,5-tetrahydroimidazo[1,2-a]quinazoline-7-sulfonamide] was < 100 nM; that for `CN1C(=O)c2cc(S(=O)(=O)NC3(C)CC3)ccc2N2C1=NC[C@H]2C#Cc1cnn(C)c1` [Example 130, (R)-4-methyl-1-((1-methyl-1H-pyrazol-4-yl)ethynyl)-N-(1-methylcyclopropyl)-5-oxo-1,2,4,5-tetrahydroimidazo[1,2-a]quinazoline-7-sulfonamide] was < 100 nM.
Molecule `[2H]C([2H])(c1cnn(C)c1)N1C(=O)c2cc(S(=O)(=O)NC3(C)CC3)ccc2N2C1=NCC2CNc1ccccn1` (stereo not drawn) [Example 131, 4-((1-methyl-1H-pyrazol-4-yl)methyl-d2)-N-(1-methylcyclopropyl)-5-oxo-1-((pyridin-2-ylamino)methyl)-1,2,4,5-tetrahydroimidazo[1,2-a]quinazoline-7-sulfonamide] displayed an IC50 of 1000 to 10000 nM.

The term IC50 denotes the point on the concentration scale where inhibition reaches its midpoint. Lower therefore signals greater potency in that assay.

Source of the values: patent US20260285875A1, “INHIBITORS OF PARG” (858 Therapeutics, Inc., priority 2023, published 2026).
